Assay results published in ChEMBL document CHEMBL1201862, “PubChem BioAssay data set” (2004).
Values belong to the compound of their own block, whether it stands above or below them. Calls of active or inactive are those of the source.

Columns and labels:
[1] = target: Cytochrome P450 2C19 (Homo sapiens, UniProt P33261); experiment: Cytochrome panel assay with activity outcomes. Panel member name: p450-cyp2c19 Compounds with AC50 equal or less than 10 uM are considered active; format: functional
Cytochrome P450 2C19, sequence (P33261 whole entry): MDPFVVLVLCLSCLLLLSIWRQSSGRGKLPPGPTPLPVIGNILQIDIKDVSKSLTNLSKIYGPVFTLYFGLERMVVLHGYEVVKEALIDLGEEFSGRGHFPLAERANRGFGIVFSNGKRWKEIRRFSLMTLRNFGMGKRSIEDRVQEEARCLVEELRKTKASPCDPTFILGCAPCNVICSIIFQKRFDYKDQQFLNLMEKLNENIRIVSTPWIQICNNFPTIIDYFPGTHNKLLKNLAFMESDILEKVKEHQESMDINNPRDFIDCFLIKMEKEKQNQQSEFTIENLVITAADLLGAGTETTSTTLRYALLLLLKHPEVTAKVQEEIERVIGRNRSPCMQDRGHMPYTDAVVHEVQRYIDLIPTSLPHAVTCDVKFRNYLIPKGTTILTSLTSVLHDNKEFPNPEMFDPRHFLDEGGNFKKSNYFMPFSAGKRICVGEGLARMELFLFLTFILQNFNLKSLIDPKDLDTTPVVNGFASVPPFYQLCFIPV

[2] = inhibitors of intracellular T. cruzi replication, confirmation, NIH3T3 host cells, beta-gal luminescence (AID 2044); format: functional, cell-based;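 further: intracellular parasites grown in NIH/3T3 mouse fibroblasts as host cells; luminescent beta-galactosidase reporter signal from transgenic T. cruzi replicating inside host cells; inhibitors lower the luminescence signal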
[3] = cytotoxicity toward NIH3T3 fibroblasts, dose response, counter-screen, cell-based, ATP luminescence, mouse fibroblasts (AID 2010); format: functional;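 further: cells exposed to compound for about 90 hours before reading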
[4] = target: Cytochrome P450 3A4 (Homo sapiens, UniProt P08684);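 further: CYP3A4 tested as one member of a cytochrome P450 panel screen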
Cytochrome P450 3A4, sequence (P08684 whole entry): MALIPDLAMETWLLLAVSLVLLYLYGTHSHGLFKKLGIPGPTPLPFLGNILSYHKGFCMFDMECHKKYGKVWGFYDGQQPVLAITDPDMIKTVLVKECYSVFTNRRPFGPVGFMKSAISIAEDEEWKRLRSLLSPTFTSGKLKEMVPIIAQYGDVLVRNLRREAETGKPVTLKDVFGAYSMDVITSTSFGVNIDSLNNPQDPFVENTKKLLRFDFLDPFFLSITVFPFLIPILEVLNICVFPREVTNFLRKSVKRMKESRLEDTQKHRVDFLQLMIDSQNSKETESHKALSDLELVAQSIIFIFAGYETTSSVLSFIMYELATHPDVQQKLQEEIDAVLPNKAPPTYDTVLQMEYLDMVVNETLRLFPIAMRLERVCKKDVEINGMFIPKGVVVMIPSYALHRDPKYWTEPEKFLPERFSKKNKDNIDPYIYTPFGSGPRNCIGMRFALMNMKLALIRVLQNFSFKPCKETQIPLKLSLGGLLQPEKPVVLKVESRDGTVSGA

AC50 [1]: inconclusive
Structure (SMILES): CO[C@@H]1COC(=O)[C@@H](CCSC)NC(=O)C/C=C\[C@@H](C)COC(=O)[C@H](C)NC(=O)C/C=C\[C@H]1C

AC50 ([1]; read-out: AC50): 0.562 µM (inconclusive)
Structure (SMILES): Cc1cccc(-c2noc(-c3cc4ccccc4oc3=O)n2)c1

Structure (SMILES): COc1cccc(N2C(C(C)=O)=NN(c3ccccc3)C2c2ccc(N3CCOCC3)cc2)c1 (stereo not drawn)
EC50 [2]: 1.49 µM (active)
EC50 [3]: > 30 µM (not active)

AC50 [4]: 39.8 µM (inconclusive)
Structure (SMILES): CCOc1c(OC(C)=O)ccc(/C=C2\N=C(SCC)SC2=O)c1[N+](=O)[O-]

AC50 [4]: 39.8 µM (inconclusive)
Structure (SMILES): Cc1nnc(O)nc1NCc1ccccc1Cl

AC50 [4]: 3.16 µM (inconclusive)
Structure (SMILES): Cc1ccccc1NC(=S)NC(=O)c1cc(-c2ccccc2)nc2ccccc12

AC50 ([1]; read-out: AC50): 15.8 µM (inconclusive)
Structure (SMILES): COCCNc1ccnc(-c2ccccc2C)n1

AC50 [4]: 10 µM (inconclusive)
Structure (SMILES): CCCC[C@]1(C2CCCC2)Cc2cc(OCC(=O)O)c(Cl)c(Cl)c2C1=O

Structure (SMILES): CC(C)c1ccccc1[S+]([O-])c1ccccc1C(C)(C)O (stereo not drawn)
AC50 ([1]; read-out: AC50): 3.16 µM (inconclusive)
AC50 [4]: 3.98 µM (inconclusive)

Structure (SMILES): COC(=O)C1=CN(c2cc(C)cc(C)c2)C=C(C(=O)OC)C1c1cccc(F)c1
EC50 [2]: 3.09 µM (active)
EC50 [3]: > 60 µM (not active)

Structure (SMILES): CCOC(=O)c1c(NC(=O)COC(=O)c2ccccc2NC)sc(C(=O)N(C)C)c1C
EC50 [2]: 0.75 µM (active)
EC50 [3]: > 60 µM (not active)

AC50 [4]: 6.31 µM (inconclusive)
Structure (SMILES): COC(=O)[C@@H]1CC[C@H](C)[C@@H](c2ccc(C)cc2)N1C(=O)c1ccc(/C=N\OC[C@@H](O)[C@H]2O[C@H]3OC(C)(C)O[C@H]3[C@@H]2O)cc1

AC50 ([1]; read-out: AC50): 39.8 µM (inconclusive)
Structure (SMILES): CCN1CCN(c2nc(-c3ccccn3)nc3ccccc23)CC1

Structure (SMILES): O=C(c1cc(COc2ccc(F)cc2Cl)on1)N(Cc1ccncc1)CC1CCCO1 (stereo not drawn)
EC50 [2]: 0.956 µM (active)
EC50 [3]: > 60 µM (not active)

AC50 [1]: inconclusive
Structure (SMILES): Cn1c(=O)c2c(nc(N/N=C\c3ccccc3C(=O)O)n2C)n(C)c1=O

AC50 [4]: 1.41 µM (inconclusive)
Structure (SMILES): O=C(CSc1ncnc2c1cnn2CCc1ccccc1)Nc1ccc(F)cc1

Structure (SMILES): CCOc1ccc2nc(NC(=O)C3CCN(c4cnccn4)CC3)sc2c1
EC50 [2]: 2.48 µM (active)
EC50 [3]: > 60 µM (not active)

AC50 [4]: 5.01 µM (inconclusive)
Structure (SMILES): C[C@@H](c1ccccc1)N1C(=O)[C@H]2[C@H]3[C@H](O)[C@H](O)C/C(=N/OCc4ccccc4)[C@@H]3CC[C@@H]2C1=O

AC50 [4]: 14.1 µM (inconclusive)
Structure (SMILES): CCN(C(S)=Nc1ccccc1F)C1CCCCC1

AC50 [4]: 39.8 µM (inconclusive)
Structure (SMILES): N#Cc1cccc(-c2nc3cnc(N4CCOCC4)nc3n(C3CC3)c2=O)c1

Structure (SMILES): CCN(CC1CCCN(CCc2cccc(OC)c2)C1)C(=O)c1ccc(COC)o1 (stereo not drawn)
EC50 [2]: 0.445 µM (active)
EC50 [3]: 30.9 µM (active)

AC50 [4]: 25.1 µM (inconclusive)
Structure (SMILES): COc1cccc(C2=NOC(C(=O)NCc3ccccc3)C2)c1 (stereo not drawn)

AC50 [4]: 3.98 µM (inconclusive)
Structure (SMILES): COc1ccc(COC(=O)N/N=C2/C[C@@H](O)[C@@H](O)[C@@H]3[C@@H]4C(=O)N([C@@H](C)c5ccccc5)C(=O)[C@H]4CC[C@H]23)cc1

AC50 [4]: 20 µM (inconclusive)
Structure (SMILES): COCCn1c(=O)c(-c2cc(F)cc(F)c2)nc2cnc(N3CCNCC3)nc21

AC50 [4]: 14.1 µM (inconclusive)
Structure (SMILES): CCN(CC)C(=O)CSc1nc(O)cc(=O)n1CC

AC50 ([1]; read-out: AC50): 39.8 µM (inconclusive)
Structure (SMILES): COc1ccc2[nH]cc(CCNc3cc(-c4ccc(C(=O)N(C)C)cc4)ncn3)c2c1

Structure (SMILES): c1ccc(NN(Cc2cnccn2)c2ccccc2)cc1
AC50 [4]: 1 µM (inconclusive)

AC50 [4]: 3.98 µM (inconclusive)
Structure (SMILES): CO[C@@H]1COC(=O)[C@H]2CCCN2C(=O)[C@@H](C)COC(=O)[C@H](COCc2ccccc2)NC(=O)C/C=C\[C@H]1C

AC50 [4]: 3.16 µM (inconclusive)
Structure (SMILES): COC(=O)[C@@H]1CC[C@H](C)[C@@H](c2ccc(C)cc2)N1C(=O)c1ccc(/C=N\OC[C@@H]2O[C@H](c3ccccc3)C=C[C@@H]2Oc2ccc(OC)cc2)cc1

AC50 [1]: inconclusive
Structure (SMILES): CCC(=O)Nc1ccc(NC(=O)CSc2nnnn2-c2cccnc2)cc1C

AC50 ([1]; read-out: AC50): 11.2 µM (inconclusive)
Structure (SMILES): C=C(C)[C@H]1CC=C(C)/C(=N/NC(=O)CNc2ccccc2OC)C1
